Source: patent US5216005A, “Immunosuppressive analogues and derivatives of succinylacetone” (priority 1990, dated 1993)

Columns and labels:
[1] = tested on: IFN-γ (human lymphoid cells); assay: IFN-γ production in primary mixed lymphocyte reaction (WISH cells/EMC virus assay); assay type: cell-based; parameters: IFN-γ: unit not given here; details: for IFN-γ: 1° MLR
Description: Derivatives of succinylacetone were tested for immunosuppressive activity in several different types of assay systems. The first consisted of measuring the amounts of interleukin-2 (IL-2), and interferon-γ (IFN-γ) produced by human lymphoid cells in a mixed lymphocyte reaction. Low levels of these molecules in the reaction mixture indicate that the immune system is being suppressed by the subject succinylacetone derivatives.
IFN-γ was determined by measuring the amount of protection conveyed on human WISH cells against the cytopathic effects of encephalomyocarditis virus (EMC). This assay is described by I. A. Braude, J. of Immunol. Methods 63:237 (1983). Both publications are hereby incorporated by reference.
The mixed lymphocyte reaction assay can be carried out by techniques well known to those skilled in the art. L. Hudson and F. C. Huy, Practical Immunology, p. 260, Blackwell Scientific Publications (1976). Briefly this consists of isolating lymphocytes from human peripheral blood by standard density gradient centrifugation techniques from two separate individuals. Approximately 2×10^5 lymphocytes of each individual are combined to yield a total of 4×10^5 lymphocytes per culture. All procedures are carried out under sterile conditions, and the lymphocytes are isolated and kept in physiologically compatible solutions. To the mixture of lymphocytes is added a desired amount of an appropriate succinylacetone derivative, and after different times an aliquot of the mixture is removed and assayed for IL-2 or IFN-γ, or ^3 H-T is measured.

human lymphocytes = assay: phytohemagglutinin (PHA) stimulation assay, tritiated thymidine uptake; assay type: cell-based
Description: A second assay widely used to study immune responsiveness is mitogenic stimulation of thymocytes with antigenic substances of plant origin. The most widely used plant molecule is phytohemagglutinin (PHA).
The procedure for carrying out the phytohaemagglutinin assay is also well known to those skilled in the art. Briefly, it consists of isolating human lymphocytes as described above, and incubating about 1.0×10^6 cells per ml in a suitable physiological solution with phytohaemagglutinin, and the appropriate concentration of succinylacetone-proline-NH-PEG. Tritiated thymidine is added 48 hours later and allowed to incubate for twenty-four hours before the cells are counted.

[2] = tested on: peripheral blood lymphocytes; assay: viability of peripheral blood lymphocytes with or without PHA, trypan blue exclusion; assay type: cell-based, human
Description: (§1) Viability was determined using the trypan blue exclusion method well known in the art. […] The assays were conducted in duplicate wherein peripheral blood lymphocytes were isolated from two separate individuals, and then treated with or without phytohemagglutinin in the presence of various concentrations of the appropriate succinylacetone derivative.

[3] = as above; assay type: cell-based, human; details: human, peripheral blood lymphocytes; for viability at 2200 µM: 2.2 mM; for viability at 6700 µM: 6.7 mM; for viability at 20000 µM: 20 mM
Description: as §1

Molecule `COC(=O)CCC(C(C)=O)C(C)=O` [Methyl 4-Acetyl-5-Oxohexanoate, methyl 4-acetyl-5-oxohexanoate] has an IFN-γ ([1]; Exp I, 3 μM) of 1260, an IFN-γ ([1]; Exp I, 9 μM) of 1260 and an IFN-γ ([1]; Exp I, 27 μM) of 1260. For the same molecule, the IFN-γ ([1]; Exp I, 81 μM) was 1313, the IFN-γ ([1]; Exp I, 244 μM) was 998 and the IFN-γ ([1]; Exp I, 733 μM) was 570. The IFN-γ ([1]; Exp I, 2.2 mM) was 285, the IFN-γ ([1]; Exp I, 6.7 mM) was less than 285 and the IFN-γ ([1]; Exp I, 20 mM) was less than 285. It also gave an IFN-γ ([1]; Exp II, 3 μM) of 1144, an IFN-γ ([1]; Exp II, 9 μM) of 1248 and an IFN-γ ([1]; Exp II, 27 μM) of 1248. It also gave an IFN-γ ([1]; Exp II, 81 μM) of 1560, an IFN-γ ([1]; Exp II, 244 μM) of 1953 and an IFN-γ ([1]; Exp II, 733 μM) of 1172. It also gave an IFN-γ ([1]; Exp II, 2.2 mM) of 703, an IFN-γ ([1]; Exp II, 6.7 mM) of less than 469 and an IFN-γ ([1]; Exp II, 20 mM) of less than 469. The IC50 ([1]; Homo sapiens, Lymphocyte, primary MLR, read-out: concentration causing 50% reduction in IFN-γ production) was roughly 2200 µM, the IC50 (human lymphocytes; Homo sapiens, Lymphocyte, both assays (two individuals), read-out: concentration causing about 50% inhibition in PHA stimulation) was roughly 309 µM and the “PHA stimulation, cpm ± SD” value (human lymphocytes; first experiment, 3.8 μM) was 19888 cpm. The “PHA stimulation, cpm ± SD” value (human lymphocytes; first experiment, 11 μM) was 19401 cpm, the “PHA stimulation, cpm ± SD” value (human lymphocytes; first experiment, 34 μM) was 19399 cpm and the “PHA stimulation, cpm ± SD” value (human lymphocytes; first experiment, 103 μM) was 18677 cpm. The “PHA stimulation, cpm ± SD” value (human lymphocytes; first experiment, 309 μM) was 14098 cpm, the “PHA stimulation, cpm ± SD” value (human lymphocytes; first experiment, 926 μM) was 2776 cpm and the “PHA stimulation, cpm ± SD” value (human lymphocytes; first experiment, 2.8 mM) was 116 cpm. For the same molecule, the “PHA stimulation, cpm ± SD” value (human lymphocytes; first experiment, 25 mM) was 200 cpm, the “PHA stimulation, cpm ± SD” value (human lymphocytes; first experiment, 83 mM) was 192 cpm and the “PHA stimulation, cpm ± SD” value (human lymphocytes; second experiment, 3.8 μM) was 33799 cpm. The “PHA stimulation, cpm ± SD” value (human lymphocytes; second experiment, 11 μM) was 33417 cpm, the “PHA stimulation, cpm ± SD” value (human lymphocytes; second experiment, 34 μM) was 34006 cpm and the “PHA stimulation, cpm ± SD” value (human lymphocytes; second experiment, 103 μM) was 30569 cpm. The “PHA stimulation, cpm ± SD” value (human lymphocytes; second experiment, 309 μM) was 19713 cpm, the “PHA stimulation, cpm ± SD” value (human lymphocytes; second experiment, 926 μM) was 5600 cpm and the “PHA stimulation, cpm ± SD” value (human lymphocytes; second experiment, 2.8 mM) was 717 cpm. The “PHA stimulation, cpm ± SD” value (human lymphocytes; second experiment, 25 mM) was 200 cpm, the “PHA stimulation, cpm ± SD” value (human lymphocytes; second experiment, 83 mM) was 156 cpm and the toxicity ([2]; as high as 20 mM) was “no toxicity”. The Cells/ml ([2]; first individual, (+) PHA, 3 μM) was 0.45 X 10^6 Cells/ml, the Cells/ml ([2]; first individual, (+) PHA, 9 μM) was 0.47 X 10^6 Cells/ml and the Cells/ml ([2]; first individual, (+) PHA, 27 μM) was 0.46 X 10^6 Cells/ml. The Cells/ml ([2]; first individual, (+) PHA, 81 μM) was 0.38 X 10^6 Cells/ml, the Cells/ml ([2]; first individual, (+) PHA, 244 μM) was 0.44 X 10^6 Cells/ml and the Cells/ml ([2]; first individual, (+) PHA, 733 μM) was 0.38 X 10^6 Cells/ml. For the same molecule, the Cells/ml ([2]; first individual, (+) PHA, 2.2 mM) was 0.49 X 10^6 Cells/ml, the Cells/ml ([2]; first individual, (+) PHA, 6.7 mM) was 0.46 X 10^6 Cells/ml and the Cells/ml ([2]; first individual, (+) PHA, 20 mM) was 0.49 X 10^6 Cells/ml. The Cells/ml ([2]; first individual, (-) PHA, 3 μM) was 0.39 X 10^6 Cells/ml, the Cells/ml ([2]; first individual, (-) PHA, 9 μM) was 0.55 X 10^6 Cells/ml and the Cells/ml ([2]; first individual, (-) PHA, 27 μM) was 0.44 X 10^6 Cells/ml. The Cells/ml ([2]; first individual, (-) PHA, 81 μM) was 0.42 X 10^6 Cells/ml, the Cells/ml ([2]; first individual, (-) PHA, 244 μM) was 0.40 X 10^6 Cells/ml and the Cells/ml ([2]; first individual, (-) PHA, 733 μM) was 0.37 X 10^6 Cells/ml. The Cells/ml ([2]; first individual, (-) PHA, 2.2 mM) was 0.57 X 10^6 Cells/ml, the Cells/ml ([2]; first individual, (-) PHA, 6.7 mM) was 0.57 X 10^6 Cells/ml and the Cells/ml ([2]; first individual, (-) PHA, 20 mM) was 0.5 X 10^6 Cells/ml. For the same molecule, the Cells/ml ([2]; second individual, (+) PHA, 3 μM) was 0.40 X 10^6 Cells/ml, the Cells/ml ([2]; second individual, (+) PHA, 9 μM) was 0.50 X 10^6 Cells/ml and the Cells/ml ([2]; second individual, (+) PHA, 27 μM) was 0.50 X 10^6 Cells/ml. The Cells/ml ([2]; second individual, (+) PHA, 81 μM) was 0.40 X 10^6 Cells/ml, the Cells/ml ([2]; second individual, (+) PHA, 244 μM) was 0.54 X 10^6 Cells/ml and the Cells/ml ([2]; second individual, (+) PHA, 733 μM) was 0.40 X 10^6 Cells/ml. The Cells/ml ([2]; second individual, (+) PHA, 2.2 mM) was 0.50 X 10^6 Cells/ml, the Cells/ml ([2]; second individual, (+) PHA, 6.7 mM) was 0.50 X 10^6 Cells/ml and the Cells/ml ([2]; second individual, (+) PHA, 20 mM) was 0.55 X 10^6 Cells/ml. For the same molecule, the Cells/ml ([2]; second individual, (-) PHA, 3 μM) was 0.44 X 10^6 Cells/ml, the Cells/ml ([2]; second individual, (-) PHA, 9 μM) was 0.52 X 10^6 Cells/ml and the Cells/ml ([2]; second individual, (-) PHA, 27 μM) was 0.50 X 10^6 Cells/ml. For the same molecule, the Cells/ml ([2]; second individual, (-) PHA, 81 μM) was 0.46 X 10^6 Cells/ml, the Cells/ml ([2]; second individual, (-) PHA, 244 μM) was 0.5 X 10^6 Cells/ml and the Cells/ml ([2]; second individual, (-) PHA, 733 μM) was 0.41 X 10^6 Cells/ml. For the same molecule, the Cells/ml ([2]; second individual, (-) PHA, 2.2 mM) was 0.54 X 10^6 Cells/ml, the Cells/ml ([2]; second individual, (-) PHA, 6.7 mM) was 0.6 X 10^6 Cells/ml and the Cells/ml ([2]; second individual, (-) PHA, 20 mM) was 0.5 X 10^6 Cells/ml. The viability at 3 µM ([3]; first individual, (+) PHA) was 100%, the viability at 9 µM ([3]; first individual, (+) PHA) was 100% and the viability at 27 µM ([3]; first individual, (+) PHA) was 100%. The viability at 81 µM ([3]; first individual, (+) PHA) was 100%, the viability at 244 µM ([3]; first individual, (+) PHA) was 100% and the viability at 733 µM ([3]; first individual, (+) PHA) was 100%. The viability at 2200 µM ([3]; first individual, (+) PHA) was 100%, the viability at 6700 µM ([3]; first individual, (+) PHA) was 100% and the viability at 20000 µM ([3]; first individual, (+) PHA) was 100%. It also gave a viability at 3 µM ([3]; first individual, (-) PHA) of 100%, a viability at 9 µM ([3]; first individual, (-) PHA) of 100% and a viability at 27 µM ([3]; first individual, (-) PHA) of 100%. The viability at 81 µM ([3]; first individual, (-) PHA) was 100%, the viability at 244 µM ([3]; first individual, (-) PHA) was 100% and the viability at 733 µM ([3]; first individual, (-) PHA) was 100%. For the same molecule, the viability at 2200 µM ([3]; first individual, (-) PHA) was 100%, the viability at 6700 µM ([3]; first individual, (-) PHA) was 100% and the viability at 20000 µM ([3]; first individual, (-) PHA) was 100%. The viability at 3 µM ([3]; second individual, (+) PHA) was 100%, the viability at 9 µM ([3]; second individual, (+) PHA) was 100% and the viability at 27 µM ([3]; second individual, (+) PHA) was 100%. It also gave a viability at 81 µM ([3]; second individual, (+) PHA) of 100%, a viability at 244 µM ([3]; second individual, (+) PHA) of 100% and a viability at 733 µM ([3]; second individual, (+) PHA) of 100%. It also gave a viability at 2200 µM ([3]; second individual, (+) PHA) of 100%, a viability at 6700 µM ([3]; second individual, (+) PHA) of 100% and a viability at 20000 µM ([3]; second individual, (+) PHA) of 100%. It also gave a viability at 3 µM ([3]; second individual, (-) PHA) of 100%, a viability at 9 µM ([3]; second individual, (-) PHA) of 100% and a viability at 27 µM ([3]; second individual, (-) PHA) of 100%. It also gave a viability at 81 µM ([3]; second individual, (-) PHA) of 100%, a viability at 244 µM ([3]; second individual, (-) PHA) of 100% and a viability at 733 µM ([3]; second individual, (-) PHA) of 100%. The viability at 2200 µM ([3]; second individual, (-) PHA) was 100%, the viability at 6700 µM ([3]; second individual, (-) PHA) was 100% and the viability at 20000 µM ([3]; second individual, (-) PHA) was 100%.
